Results taken from the supplement of paper PMC3068080.

Columns and labels:
TGFBR1 mRNA [1] = assay: remaining TGFBR1 mRNA relative to control siRNA (off-target knock-down) (fraction of control); quantification method: branched DNA (R1), qPCR (R2); higher = less knock-down
Method: (§1)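 Screen-hit siRNA duplexes (19-mer plus 3' dTdT overhang) were transiently transfected into HaCaT cells in 12-well plates. After 48 h, TGFBR1 and TGFBR2 mRNA were quantified by branched DNA assay (QuantiGene, normalised to HPRT1) or by SYBR qPCR (normalised to HPRT1/SMAD4). Values are the remaining mRNA relative to control-siRNA-transfected cells; 1-2 biological replicates.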

TGFBR2 mRNA [2] = assay: remaining TGFBR2 mRNA relative to control siRNA (off-target knock-down) (fraction of control); quantification method: branched DNA (R1), qPCR (R2); higher = less knock-down
Method: as §1

TGFBR1 mRNA [3] = assay: remaining TGFBR1 mRNA relative to control siRNA (off-target knock-down) (fraction of control); quantification method: qPCR (R1), branched DNA (R2); higher = less knock-down
Method: as §1

TGFBR2 mRNA [4] = assay: remaining TGFBR2 mRNA relative to control siRNA (off-target knock-down) (fraction of control); quantification method: qPCR (R1), branched DNA (R2); higher = less knock-down
Method: as §1

TGFBR1 mRNA [5] = assay: remaining TGFBR1 mRNA relative to control siRNA (off-target knock-down) (fraction of control); quantification method: qPCR; higher = less knock-down
Method: as §1

TGFBR2 mRNA [6] = assay: remaining TGFBR2 mRNA relative to control siRNA (off-target knock-down) (fraction of control); quantification method: qPCR; higher = less knock-down
Method: as §1

TGFBR2 mRNA [7] = assay: remaining TGFBR2 mRNA relative to control siRNA (off-target knock-down) (fraction of control); quantification method: branched DNA; higher = less knock-down
Method: as §1

TGFBR1 mRNA [8] = assay: remaining TGFBR1 mRNA relative to control siRNA (off-target knock-down) (fraction of control); quantification method: branched DNA; higher = less knock-down
Method: as §1

| Sequence | remaining TGFBR1 mRNA (TGFBR1 mRNA [1]) | remaining TGFBR2 mRNA (TGFBR2 mRNA [2]) | remaining TGFBR2 mRNA (TGFBR2 mRNA [7]) | remaining TGFBR1 mRNA (TGFBR1 mRNA [8]) | other results |
| --- | --- | --- | --- | --- | --- |
| AACACCAUCUACUUGAUGGTT | 1.31 | 0.78 | – | – | – |
| AACUGGUUCAGGUACUUCCTT | 0.95 | 0.71 | – | – | – |
| ACUACGACUCAGUGCCUGGTT | 1 | 0.7 | – | – | – |
| AGACGGCAAACGACUGUCCTT | 1.27 | 0.75 | – | – | – |
| AGCUCAAACAGUAUCUGGUTT | 1.45 | 0.7 | – | – | – |
| AGGAUCAGCAGCCCGUAGCTT | 1.52 | 0.72 | – | – | – |
| AUAGACCAUCCCCCUUCUUTT | – | – | – | – | remaining TGFBR1 mRNA (TGFBR1 mRNA [3]): 0.46; remaining TGFBR2 mRNA (TGFBR2 mRNA [4]): 0.95 |
| AUCCUGCAGAAUCACGUCCTT | 0.93 | 0.7 | – | – | – |
| AUGAUGUCAUCGGCUGUGGTT | – | – | – | – | remaining TGFBR1 mRNA (TGFBR1 mRNA [5]): 0.68; remaining TGFBR2 mRNA (TGFBR2 mRNA [6]): 0.15 |
| AUGUGUACAGCCCUCUUCCTT | 1.84 | 0.65 | – | – | – |
| CUCUGGGGAUUUGGAGGAUTT | 1.07 | 0.71 | – | – | – |
| UCUCGCUGACGAAGCAGUATT | 1.1 | 0.75 | – | – | – |
| UCUGUCAUAGGAUCCAAAATT | – | – | – | – | remaining TGFBR1 mRNA (TGFBR1 mRNA [5]): 0.74; remaining TGFBR2 mRNA (TGFBR2 mRNA [6]): 0.75 |
| UGCACCUGACUUUUCUCUGTT | 1.37 | 0.72 | – | – | – |
| UGUCUCCUCUCUUGUCCGUTT | 0.95 | 0.7 | – | – | – |
| UUAUUUGGGUGGGCUGGGGTT | 0.98 | 0.75 | – | – | – |
| UUCAAGGUCAGUCUCUGGGTT | – | – | 0.51 | 1.07 | – |
| UUCAAUAGUUGUCAGAGGCTT | – | – | 1.62 | 1.35 | – |
| UUCCCUGCUACUGUUGCUUTT | – | – | 0.72 | 0.84 | – |
| UUCCUUGGCUGUGAUGCUCTT | – | – | 0.11 | 0.93 | – |

| Sequence | remaining TGFBR1 mRNA (TGFBR1 mRNA [1]) | remaining TGFBR2 mRNA (TGFBR2 mRNA [2]) | remaining TGFBR2 mRNA (TGFBR2 mRNA [7]) | remaining TGFBR1 mRNA (TGFBR1 mRNA [8]) | other results |
| --- | --- | --- | --- | --- | --- |
| UUCCUUGGUACGGCCGCUCTT | – | – | 0.13 | 0.87 | – |
| UUCGUCGAUGGCUUCGUCUTT | – | – | 0.65 | 0.67 | – |
| UUCUUCUGGUCCAUACUCATT | – | – | 0.66 | 0.45 | – |
| UUCUUUGGAGAGUCCGGUCTT | – | – | 0.3 | 0.88 | – |
| UUGAGCGAUUCCAGCUGCATT | – | – | 0.85 | 1.77 | – |
| UUGCAAGCCCAGAUCAGACTT | – | – | 0.74 | 0.92 | – |
| UUGGAGCCCUUUCCUUUCUTT | – | – | 0.26 | 1.07 | – |
| UUGUAAAAACCAGGCGACCTT | – | – | 0.33 | 1.48 | – |
| UUGUCAAAGUGGAACGCUCTT | – | – | 0.29 | 0.83 | – |
| UUGUGCUGCAUACGGAGCCTT | – | – | 0.45 | 1.69 | – |
| UUUCAGCAAUACAAGCCCGTT | – | – | 0.68 | 0.39 | – |
| UUUCAUUCCAUUGGAAUUUTT | – | – | 0.59 | 1.25 | – |
| UUUCCUGGCCUCCUGGAACTT | – | – | 0.29 | 0.94 | – |
| UUUCCUGGUUGGUGAGCAGTT | – | – | 0.36 | 1.29 | – |
| UUUGGACUGGUUGGCACAGTT | – | – | 0.69 | 1.11 | – |
| UUUGGAGCUCCCCAAACGCTT | – | – | 0.26 | 0.39 | – |
| UUUGGCUUCUUCUAGUGACTT | – | – | 0.51 | 0.91 | – |
| UUUGUUGUCCAGUGGUCCGTT | – | – | 0.43 | 1.13 | – |
| UUUUCCUGGCCUCUGAUCCTT | – | – | 0.15 | 0.99 | – |
